Data on two compounds can be found in US4675427A, “Tetraphosphine-coordinated gold(I) complexes” (Smith Kline Beckman Corporation, priority 1985, dated 1987).

Where “and” joins values, the source holds several entries; their conditions need not be identical. Equal entries are not always repeated.

The conditions of data set [1]: disclosed by Struck et al. (1966); cited from earlier work.
For data set [2], the system named is P388 lymphocytic leukemia. Description: in vivo ip P388 leukemia mouse model. From the text:
P388 lymphocytic leukemia is currently the most widely used animal tumor model for screening for antitumor agents and for detailed evaluation of active compounds. This tumor system is widely accepted as an antitumor agent screening tool because it is sensitive to virtually all of the clinically active antineoplastic agents; quantitative and reproducible; amenable for large-scale screening; and predictive for activity in other animal tumor models.
10^6 P388 leukemia cells are inoculated ip in B6D2F1 mice. Twenty-four hours later, if the tumor inoculum proves to be free of bacterial contamination (as determined by 24 hours incubation in thioglycollate broth), animals are randomized into groups of 6 and housed in shoebox cages. The compound to be evaluated is dissolved in a minimal volume of N,N-dimethylacetamide (DMA). An equal volume of saline is added; if the drug comes out of solution an equal volume of polyethoxylated castor oil is added and then saline qs to a concentration such that the desired dose is delivered in 0.5 ml. The final concentration of DMA and polyethoxylated castor oil is 10 percent. Dilutions for lower doses are made with saline so there is a decreasing proportion of organic solvents in the vehicle with decreasing dosage. This vehicle provides a soluble formulation. […] Animals are monitored daily for mortality and experiments are terminated after 45 days. […]

The subject of data set [3] is M5076 reticulum cell sarcoma. Description: ip implanted M5076 reticulum cell sarcoma tumor model in mice. Format: in vivo, mouse. As to the method: Another chemosensitive tumor model is intraperitoneally (ip) implanted M5076 reticulum cell sarocma in mice. In this system B6D2F female mice are inoculated with 0.5 ml of a 10 percent (w:v) brei of M5076 prepared from pooled subcutaneous (sc) tumors excised at about 21 days from C57B1/6 donors. Drugs are administered ip. Daily treatment is begun 24 hours after implantation and is continued for ten days. The treatment regimen for M5076 is more prolonged than for P388 because of the slower growth rate and longer control survival time of the M5076 tumor. A drug is considered active in this tumor model if it produces ≥25% ILS.

Another data set relates to B16 melanoma. As to the kind of experiment: in vivo ip B16 melanoma assay. Also on record: species or system mouse. The protocol: In this system, groups of eight B6D2F1 mice are inoculated ip with 0.5 ml of a 10% (w:v) brei of […] prepared from pooled sc tumors excised at 14-21 days from […] donor mice. Daily treatment is begun 24 hours after tumor implantation and is continued daily for ten (10) days. The route of drug administration is ip. The mice are monitored daily for survival for sixty (60) days. Antitumor activity is assessed by prolongation of median survival time. An ILS of ≥25% indicates activity in this tumor model.

Take `c1ccc(P(CCP(c2ccccc2)c2ccccc2)c2ccccc2)cc1` [1,2-bis(diphenylphosphino)ethane]: the cytotoxic activity result in data set [1] is listed as “cytotoxic activity”.

With `[Cl][Au].c1ccc(P(CCP(CCP(c2ccccc2)c2ccccc2)c2ccccc2)CCP(c2ccccc2)c2ccccc2)cc1` (stereo not shown) [Compound 1, Chloro[1,1,4,7,10,10-hexaphenyl-1,4,7,10-tetraphosphodecane-P^1, P^4, P^7, P^10] gold(I)], the “MTD (maximally tolerated dose)” value in data set [2] (B62DF female mice, ip qDX5 regimen) is 3 mg/kg; in data set [3] (B6D2F female mice, ip qD × 10 regimen) it was 2 mg/kg; with B16 melanoma (B6D2F1 mice, ip qD × 10 regimen), 2 mg/kg. The “ILS (max), maximum increase in lifespan” value in data set [2] (mice bearing ip P388 leukemia, ip Days 1 through 5, figures separated by slashes are from separate experiments) was 40% and 65%. Besides, the “ILS (MAX), maximum increase in lifespan” value in data set [3] (mice bearing ip M5076 reticulum cell sarcoma, ip daily for ten days) amounted to 38%. Also, the “ILS, maximum increase in lifespan” value in the data set on B16 melanoma (mice bearing ip B16 melanoma, ip daily for ten days) came out at 37%.
